From patent publication US9643941B2, “2,2′-tandem dithiazole compound, preparation method therefor, and use thereof” (SHANGHAI INSTITUTE OF MATERIA MEDICA, CHINESE ACADEMY OF …, priority 2014, dated 2017) come the findings set out here.

Where two headings read alike, the source gives them in different places.

The target of one test is T1, Human source HDAC6 (Homo sapiens, UniProt Q9UBN7).
T1 sequence (Q9UBN7 1-1215): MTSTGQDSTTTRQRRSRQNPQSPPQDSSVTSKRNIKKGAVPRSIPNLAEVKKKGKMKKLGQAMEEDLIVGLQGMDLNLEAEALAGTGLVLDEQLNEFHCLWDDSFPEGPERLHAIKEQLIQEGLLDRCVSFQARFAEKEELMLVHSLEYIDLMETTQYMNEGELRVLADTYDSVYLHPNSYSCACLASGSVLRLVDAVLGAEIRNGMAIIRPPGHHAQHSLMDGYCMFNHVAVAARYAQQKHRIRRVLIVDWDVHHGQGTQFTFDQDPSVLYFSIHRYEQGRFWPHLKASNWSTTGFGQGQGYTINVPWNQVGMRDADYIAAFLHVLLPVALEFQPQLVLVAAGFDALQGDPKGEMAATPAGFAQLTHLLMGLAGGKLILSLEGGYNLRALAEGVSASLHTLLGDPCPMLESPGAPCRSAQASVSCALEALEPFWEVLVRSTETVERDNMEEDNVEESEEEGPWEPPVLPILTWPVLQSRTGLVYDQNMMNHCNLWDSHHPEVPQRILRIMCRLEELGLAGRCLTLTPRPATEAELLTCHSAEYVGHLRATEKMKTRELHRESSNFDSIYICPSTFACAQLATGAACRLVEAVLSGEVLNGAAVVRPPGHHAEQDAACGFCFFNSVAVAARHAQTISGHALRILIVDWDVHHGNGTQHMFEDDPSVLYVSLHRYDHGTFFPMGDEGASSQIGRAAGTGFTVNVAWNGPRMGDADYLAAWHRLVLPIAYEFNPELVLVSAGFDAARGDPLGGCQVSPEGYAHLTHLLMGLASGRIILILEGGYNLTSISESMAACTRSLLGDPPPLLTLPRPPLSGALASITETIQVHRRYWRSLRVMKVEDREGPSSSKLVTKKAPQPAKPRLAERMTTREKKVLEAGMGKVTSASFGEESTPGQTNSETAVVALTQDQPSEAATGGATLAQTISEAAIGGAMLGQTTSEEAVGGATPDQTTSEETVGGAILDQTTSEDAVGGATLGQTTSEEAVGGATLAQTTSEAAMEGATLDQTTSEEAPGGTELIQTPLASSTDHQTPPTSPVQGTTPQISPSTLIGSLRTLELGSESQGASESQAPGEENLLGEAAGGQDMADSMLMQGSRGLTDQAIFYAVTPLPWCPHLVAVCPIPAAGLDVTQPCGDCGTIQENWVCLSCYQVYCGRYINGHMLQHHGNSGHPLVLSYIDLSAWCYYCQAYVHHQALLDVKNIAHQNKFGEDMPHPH
As to the kind of experiment: Inhibition activity against histone deacetylase 6 (fluorescence, AMC substrate). The test is classed as biochemical. Particulars: for IC50: IC50 ± SD/SE. On the procedure: (§1) 2. Materials for the Test: • Human source HDAC1, HDAC3, HDAC4, and HDAC6 were obtained by the Group of Doctor LI Jia in Shanghai Institute of Materia Medica by using the baculovirus expression system and purifying. • Substrate: HDAC1, 3, 4: Ac-Lys-Tyr-Lys (Ac)-AMC; • HDAC6: Boc-lys (Ac)-AMC • ∠All were purchased from GL Biochem (Shanghai) Ltd.;
(§2) Enzyme activity was measured in 96-well or 384-well flat-bottom microplates using fluorescence detection. […] The initial reaction speed was calculated by detecting the changes of the fluorescence signal over time.
(§3) Sample treatment: The sample was dissolved in DMSO and stored at low temperature.
(§4) Illustration about the data processing and the result: In the first screening, the activity of the sample was tested at a single concentration, e.g., 20 μg/ml. […] The bottom and top of the fitting curve were set to 0 and 100 for the most inhibitor screening models.

The target of another test is Human source HDAC4 (Homo sapiens, UniProt P56524). As to the kind of experiment: Inhibition activity against histone deacetylase 4 (fluorescence, AMC substrate). The test is classed as biochemical. On the procedure:
The test was carried out to show the inhibition activity of the compounds in this patent application against human source histone deacetylases 1, 3, 4, 6.
as §1, §2, §3, §4

A further test concerns the target Human source HDAC3 (Homo sapiens, UniProt O15379). As to the kind of experiment: Inhibition activity against histone deacetylase 3 (fluorescence, AMC substrate). It is filed as biochemical. Particulars: IC50 ± SD/SE. As to the method:
as §1, §2, §3, §4

Another test deals with Human source HDAC1 (Homo sapiens, UniProt Q13547). As to the kind of experiment: Inhibition activity against histone deacetylase 1 (fluorescence, AMC substrate). Particulars: IC50 ± SD/SE. The test is classed as biochemical. As to the method: as §1, §2, §3, §4
Sequence of Human source HDAC1 (Q13547 whole entry): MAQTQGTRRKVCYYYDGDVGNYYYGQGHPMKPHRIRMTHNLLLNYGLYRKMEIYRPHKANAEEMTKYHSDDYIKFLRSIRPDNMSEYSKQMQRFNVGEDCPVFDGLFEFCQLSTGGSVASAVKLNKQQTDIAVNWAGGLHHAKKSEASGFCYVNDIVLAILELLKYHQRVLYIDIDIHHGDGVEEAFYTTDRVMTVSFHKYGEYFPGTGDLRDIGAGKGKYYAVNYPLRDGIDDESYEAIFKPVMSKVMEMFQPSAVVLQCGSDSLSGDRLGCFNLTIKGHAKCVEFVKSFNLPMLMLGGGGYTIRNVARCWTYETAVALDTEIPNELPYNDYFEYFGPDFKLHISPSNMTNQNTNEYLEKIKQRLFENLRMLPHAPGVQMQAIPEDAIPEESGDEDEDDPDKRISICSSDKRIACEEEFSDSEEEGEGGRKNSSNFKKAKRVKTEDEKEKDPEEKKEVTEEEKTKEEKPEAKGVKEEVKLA
Test [1] relates to human source multiple myeloma cell line 8266. As to the kind of experiment: Anti-tumor activity test in cellular level (MTT). As to conditions: for IC50: Homo sapiens, Multiple myeloma cell, 72 h, read-out: IC50 on human multiple myeloma cell line 8266.
Description: Tetrazolium salts (MTT) colorimetry was used, the analytic method is based on the metabolic reduction of 3-(4,5-dimethyl-2-thiazolyl)-2,5-diphenyltetrazolium bromide (MTT). The NADP-related dehydrogenase existing in the mitochondria of living cells can reduce the yellow MTT to insoluble bluish violet Formazan, but the enzyme is disappeared in dead cells and MTT cannot be reduced. The optical density was measured at a wavelength of 550/690 nm using a microplate reader after Formazan was dissolved in DMSO.
The cell viability was measured by MTT assay. Cells in logarithmic growth phase were digested with 0.05% trypsin and cell numbers were counted, then 100 μL was inoculated in 96-well plate at a cell density of 2.0×10^3/well, and the plate was placed in an incubator with 5% CO2 at 37° C. overnight. Six concentration gradients were set up for each compound and three wells were set for each concentration. The compound of each concentration was added to the corresponding wells, and incubated at 37° C. in an incubator with 5% CO2 for 72 hours, and then 20 μL of 5 mg/mL MTT was added to each well. After incubation for 3 hours at 37° C., the supernatant was discarded, the remained was added with 100 μL of DMSO to be dissolved, the absorbing value was measured at the light of 550 nm (L1) using a SpectraMAX 340, and the reference wavelength was 690 nm (L2). The value of (L1-L2) was plotted against the concentration of inhibiting agent, and the IC50 was obtained by fitting the formula.
Illustration about the data processing and the result: in the first screening, the activity of the sample was tested at a single concentration, e.g., 20 μg/ml. […] The bottom and top of the fitting curve were set to 0 and 100 for the most inhibitor screening models.
Another test relates to EAE mouse model. As to the kind of experiment: Drug efficacy in EAE mouse model. It is filed as in vivo. As to the method:
The activity of the compound as a histone deacetylase inhibitor in the treatment of EAE was tested by drug efficacy tests for compounds in the EAE mouse model.
Antigen MOG35-55 ([…]) was added with complete Freund's adjuvant (comprising 5 mg/ml of inactivated Mycobacterium tuberculosis) to be emulsified. 8-week aged female C57BL/6 mouse was injected subcutaneously with 200 μg of emulsified MOG35-55 antigen, while 200 ng of pertussis toxin was injected into each mouse. The day of induction was day 0. On day 2, 200 ng of pertussis toxin was further injected to each mouse. The symptoms of the mice were scored and recorded daily. The scoring rules were as follows,
0 point: normal, asymptomatic
3 points: the mouse was paralysis of hind limbs, and the mouse was loss of mobility.
4 points: the mouse was weakness or paralysis of forelimbs.
5 points: the mouse was dead or dying
2. Materials for the Test: • EAE mouse: Shanghai Slac Laboratory Animal Co., Ltd.; • Antigen MOG35˜55: GL Biochem (Shanghai) Ltd.;
The drug was directly added with the CMC—Na, ground and ultrasonic suspended into a uniform state. The dose was 10 mg/kg, twice a day by intragastric administration. The control group was directly administrated with PBS.

Where [2] appears, read: IC50 ± SD/SE, read-out: IC50 HDAC4.

Sequence of Human source HDAC3 (O15379 whole entry): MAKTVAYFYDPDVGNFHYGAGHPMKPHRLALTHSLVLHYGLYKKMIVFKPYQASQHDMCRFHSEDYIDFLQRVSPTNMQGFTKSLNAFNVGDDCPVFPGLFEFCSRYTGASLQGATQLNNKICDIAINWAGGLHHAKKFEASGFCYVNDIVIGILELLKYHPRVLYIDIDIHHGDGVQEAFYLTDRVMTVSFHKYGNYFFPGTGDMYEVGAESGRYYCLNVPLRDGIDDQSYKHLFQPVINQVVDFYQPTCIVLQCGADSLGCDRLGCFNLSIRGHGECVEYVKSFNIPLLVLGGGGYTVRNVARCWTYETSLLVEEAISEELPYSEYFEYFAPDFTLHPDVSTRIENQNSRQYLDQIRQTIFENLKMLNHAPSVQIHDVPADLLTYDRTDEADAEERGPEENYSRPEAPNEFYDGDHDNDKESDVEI
Sequence of Human source HDAC3 (Q9Y618 395-489 partner limits assumed): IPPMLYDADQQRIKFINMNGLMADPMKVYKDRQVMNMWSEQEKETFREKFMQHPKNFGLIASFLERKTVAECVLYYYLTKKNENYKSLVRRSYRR
Sequence of Human source HDAC4 (P56524 whole entry): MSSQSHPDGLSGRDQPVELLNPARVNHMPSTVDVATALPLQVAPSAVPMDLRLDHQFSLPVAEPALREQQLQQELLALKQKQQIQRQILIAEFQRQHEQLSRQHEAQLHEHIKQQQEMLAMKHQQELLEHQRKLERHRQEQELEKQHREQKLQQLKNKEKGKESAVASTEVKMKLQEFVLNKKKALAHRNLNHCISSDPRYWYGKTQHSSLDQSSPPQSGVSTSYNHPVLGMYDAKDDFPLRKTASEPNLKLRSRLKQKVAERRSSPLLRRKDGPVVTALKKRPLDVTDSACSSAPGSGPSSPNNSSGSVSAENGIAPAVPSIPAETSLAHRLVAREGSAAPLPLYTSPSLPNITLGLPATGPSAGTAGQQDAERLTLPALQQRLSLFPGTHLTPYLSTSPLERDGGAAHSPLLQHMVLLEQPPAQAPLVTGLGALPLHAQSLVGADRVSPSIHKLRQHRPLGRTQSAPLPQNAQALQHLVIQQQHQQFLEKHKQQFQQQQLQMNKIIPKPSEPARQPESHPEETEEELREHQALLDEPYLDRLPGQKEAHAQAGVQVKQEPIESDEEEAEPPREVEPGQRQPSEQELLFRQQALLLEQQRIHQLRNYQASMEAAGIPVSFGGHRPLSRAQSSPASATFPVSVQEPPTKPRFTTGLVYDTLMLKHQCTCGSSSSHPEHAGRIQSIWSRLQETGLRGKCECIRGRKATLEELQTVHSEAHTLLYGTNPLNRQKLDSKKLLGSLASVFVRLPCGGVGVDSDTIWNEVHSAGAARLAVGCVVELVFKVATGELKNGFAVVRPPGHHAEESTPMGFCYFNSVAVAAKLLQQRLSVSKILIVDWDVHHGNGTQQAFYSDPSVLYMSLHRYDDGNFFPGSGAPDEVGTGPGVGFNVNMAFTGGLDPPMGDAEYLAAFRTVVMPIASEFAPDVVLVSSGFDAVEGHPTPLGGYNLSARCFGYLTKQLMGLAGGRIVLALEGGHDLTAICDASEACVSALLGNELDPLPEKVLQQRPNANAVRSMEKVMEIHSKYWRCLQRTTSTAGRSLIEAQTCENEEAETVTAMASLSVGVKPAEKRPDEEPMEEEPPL

For orientation: IC50 means the concentration needed to halve the response being measured. On to `Cc1cnc(-c2nc(C(=O)NCCCCC(=O)C(F)(F)F)c(C3CC3)s2)s1` [HD 55], for which the IC50 against Human source HDAC6 was found to be 20 nM; on Human source HDAC4 (setting [2]), 70 nM.
In the case of `O=C(NCCCCC(=O)C(F)(F)F)c1nc(-c2nccs2)sc1Cc1ccccc1` [HD 54], the IC50 against Human source HDAC6 worked out at 60 nM; at Human source HDAC3, 60 nM; on Human source HDAC4 (setting [2]), 70 nM; against Human source HDAC1, 70 ± 10 nM.
Consider `CC(C)Cc1sc(-c2nccs2)nc1C(=O)NCCCCC(=O)C(F)(F)F` [HD 6], for which the IC50 was 457 ± 12 nM in test [1] and 40 nM at Human source HDAC4 (setting [2]).
The like results for `O=C(NCCCCC(=O)C(F)(F)F)c1nc(-c2nc3c(s2)CCCC3)sc1C1CC1` [HD 3] were, in that order, 240 ± 21 nM and 20 nM.
As to `CC(=O)N/N=C(\CCCCNC(=O)c1nc(-c2nccs2)sc1C1CC1)C(F)(F)F` [HD 37], the IC50 in test [1] was 2140 ± 22 nM; against Human source HDAC6, 80 ± 10 nM; at Human source HDAC3 it was 350 nM; on Human source HDAC4 (setting [2]), 160 ± 10 nM; on Human source HDAC1, 180 ± 30 nM. At Human source HDAC6, the “activity against HDAC6 on changing trifluoroacetyl ketone to hydrazone” value is “can be improved”.
As for `O=C(CO)N/N=C(/CCCCNC(=O)c1nc(-c2nccs2)sc1C1CC1)C(F)(F)F` [HD 46], the IC50 in test [1] is 117 nM; on Human source HDAC6, 350 ± 10 nM; at Human source HDAC3 it was 400 ± 10 nM; on Human source HDAC4 (setting [2]), 450 ± 30 nM; against Human source HDAC1, 500 ± 50 nM. The “increase of activity at the cellular level compared to CFH367-C” value in test [1] (cell line 8266) is recorded as “about 10 times”. Moreover, the “activity against HDAC6 on changing trifluoroacetyl ketone to hydrazone” value on Human source HDAC6 is recorded as “can be improved”.
As to `O=C(NCCCCC(=O)C(F)(F)F)c1nc(-c2nccs2)sc1C1CC1` [HD 1], the “incidence of EAE model mice” value with EAE mouse model (10 mg/kg twice a day, intragastric) is on record as “Effectively Reduce the Incidence”. Moreover, in the test on EAE mouse model (10 mg/kg twice a day, intragastric, clinical score (the FIGURE)), the “therapeutic effect on the clinical symptoms of EAE model mice” value is on record as “good therapeutic effect”. In addition, the Incidence number/total number in the test with EAE mouse model (EAE mice, 10 mg/kg twice a day, intragastric) is reported as 3/6. In addition, the “disease severity versus solvent control group” value in the test with EAE mouse model (P<0.01) is recorded as “significantly lower”. In addition, the IC50 in test [1] was 333 ± 11 nM; at Human source HDAC4 (setting [2]), 20 nM; on Human source HDAC4 (read-out: IC50 against HDAC4), around 20 nM.
Take `CCc1sc(-c2nccs2)nc1C(=O)NCCCCC(=O)C(F)(F)F` [HD 53]: the IC50 is 40 nM against Human source HDAC6, 50 nM against Human source HDAC3, 40 nM at Human source HDAC4 (setting [2]) and 50 nM at Human source HDAC1.
